In ChEMBL document CHEMBL1201862, “PubChem BioAssay data set” (2004):
Activity calls are given as the source filed them.

Tests used:
[1] = HEK293T cell cytotoxicity, dose response, cytotoxicity control for HIV Vif inhibitor project, cherry-picks (AID 652208); format: functional, cell-based
[2] = target: T1, Heat shock factor protein 1 (Mus musculus, UniProt P38532); assay: HSF1 potentiators in luciferase reporter cells, confirmation, cell-based, NIH3T3, luminescence, dose retest (AID 435004); format: functional;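 further: stress induced by proteasome inhibitor MG132 added 30 min after compound; luciferase reporter driven by HSF1 response element in NIH3T3 cells; actives raise luminescence as potentiators of the MG132 stress response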
T1 sequence (P38532 whole entry): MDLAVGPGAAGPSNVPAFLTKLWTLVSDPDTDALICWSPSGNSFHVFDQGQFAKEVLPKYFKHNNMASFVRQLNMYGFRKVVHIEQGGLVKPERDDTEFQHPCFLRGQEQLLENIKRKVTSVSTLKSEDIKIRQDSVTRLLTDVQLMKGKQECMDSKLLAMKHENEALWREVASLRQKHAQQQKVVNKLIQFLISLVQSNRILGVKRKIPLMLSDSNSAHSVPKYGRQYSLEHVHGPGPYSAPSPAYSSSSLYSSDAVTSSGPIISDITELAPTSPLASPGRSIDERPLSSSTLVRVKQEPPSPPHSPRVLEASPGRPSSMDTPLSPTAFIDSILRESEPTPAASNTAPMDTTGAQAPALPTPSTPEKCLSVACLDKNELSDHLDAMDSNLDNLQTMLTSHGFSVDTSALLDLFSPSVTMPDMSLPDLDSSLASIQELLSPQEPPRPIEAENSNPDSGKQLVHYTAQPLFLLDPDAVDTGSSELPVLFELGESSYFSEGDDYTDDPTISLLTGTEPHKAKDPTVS

[3] = Luminescence Cell-Based Dose Retest to Confirm Inhibitors of Cancer Stem Cells. [Related pubchem assays (depositor defined):AID2717, AID2721]; format: functional; settings: Homo sapiens
cells = format: functional, cell-based
[4] = target: T2, Nuclear receptor subfamily 0 group B member 1 (Homo sapiens, UniProt P51843); format: functional, cell-based;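 further: HEK293T cells transfected with SF-1 and DAX-1 plus StAR promoter luciferase reporter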
T2 sequence (P51843 whole entry): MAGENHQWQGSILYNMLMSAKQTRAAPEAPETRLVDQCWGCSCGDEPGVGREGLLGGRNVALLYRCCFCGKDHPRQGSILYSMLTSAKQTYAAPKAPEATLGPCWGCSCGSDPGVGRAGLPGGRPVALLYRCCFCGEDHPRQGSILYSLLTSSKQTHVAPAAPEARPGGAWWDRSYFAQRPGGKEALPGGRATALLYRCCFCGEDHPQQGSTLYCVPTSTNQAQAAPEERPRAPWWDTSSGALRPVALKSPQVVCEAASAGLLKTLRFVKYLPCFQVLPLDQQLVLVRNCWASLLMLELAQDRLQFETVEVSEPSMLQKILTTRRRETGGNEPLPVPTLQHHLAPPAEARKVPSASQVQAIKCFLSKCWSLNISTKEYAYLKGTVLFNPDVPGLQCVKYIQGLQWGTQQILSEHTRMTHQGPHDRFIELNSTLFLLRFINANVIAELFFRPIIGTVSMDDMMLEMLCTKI

Mu-type opioid receptor = Mu-type opioid receptor (Homo sapiens, UniProt P35372); format: functional, cell-based;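 further: U2OS cells with beta-arrestin recruitment to OPRM1 by beta-gal complementation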
Sequence of Mu-type opioid receptor (P35372 whole entry): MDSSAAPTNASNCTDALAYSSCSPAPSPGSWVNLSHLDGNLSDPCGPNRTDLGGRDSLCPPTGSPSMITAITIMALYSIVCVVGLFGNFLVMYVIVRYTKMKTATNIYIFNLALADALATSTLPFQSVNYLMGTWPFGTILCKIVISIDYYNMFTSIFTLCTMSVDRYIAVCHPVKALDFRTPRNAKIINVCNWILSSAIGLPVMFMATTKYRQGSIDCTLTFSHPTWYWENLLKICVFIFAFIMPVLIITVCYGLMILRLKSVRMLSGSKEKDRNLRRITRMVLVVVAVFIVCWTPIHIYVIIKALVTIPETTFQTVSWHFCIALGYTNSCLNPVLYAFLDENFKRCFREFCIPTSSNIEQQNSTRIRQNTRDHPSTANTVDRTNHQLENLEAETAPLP

[5] = target: 5-hydroxytryptamine receptor 2A (Mus musculus, UniProt P35363); format: functional, cell-based;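 further: CHO-K1 cells with tagged receptor and beta-arrestin; agonist potency measured as compound-induced activation of the receptor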
Sequence of 5-hydroxytryptamine receptor 2A (P35363 whole entry): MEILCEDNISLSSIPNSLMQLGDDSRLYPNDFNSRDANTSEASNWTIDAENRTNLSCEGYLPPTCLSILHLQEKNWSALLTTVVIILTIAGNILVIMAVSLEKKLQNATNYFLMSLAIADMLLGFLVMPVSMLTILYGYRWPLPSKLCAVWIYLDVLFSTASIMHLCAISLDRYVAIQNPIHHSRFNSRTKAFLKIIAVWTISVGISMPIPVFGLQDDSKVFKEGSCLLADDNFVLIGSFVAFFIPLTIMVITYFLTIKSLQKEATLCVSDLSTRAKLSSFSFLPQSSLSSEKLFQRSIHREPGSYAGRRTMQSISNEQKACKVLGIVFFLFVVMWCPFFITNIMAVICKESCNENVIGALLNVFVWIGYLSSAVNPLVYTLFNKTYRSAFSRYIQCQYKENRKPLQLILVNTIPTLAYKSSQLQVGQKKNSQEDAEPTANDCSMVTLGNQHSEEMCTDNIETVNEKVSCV

[6] = target: COUP transcription factor 2 (Homo sapiens, UniProt P24468); assay: Luminescence-based cell-based high throughput dose response assay to identify inhibitors of COUP-TFII (NR2F2).; format: functional;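 further: HEK293 cells transiently cotransfected with COUP-TFII expression vector and reporter; luciferase reporter luminescence driven by COUP-TFII from the pX2-168 reporter plasmid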
Sequence of COUP transcription factor 2 (P24468 whole entry, the tested form may be a part): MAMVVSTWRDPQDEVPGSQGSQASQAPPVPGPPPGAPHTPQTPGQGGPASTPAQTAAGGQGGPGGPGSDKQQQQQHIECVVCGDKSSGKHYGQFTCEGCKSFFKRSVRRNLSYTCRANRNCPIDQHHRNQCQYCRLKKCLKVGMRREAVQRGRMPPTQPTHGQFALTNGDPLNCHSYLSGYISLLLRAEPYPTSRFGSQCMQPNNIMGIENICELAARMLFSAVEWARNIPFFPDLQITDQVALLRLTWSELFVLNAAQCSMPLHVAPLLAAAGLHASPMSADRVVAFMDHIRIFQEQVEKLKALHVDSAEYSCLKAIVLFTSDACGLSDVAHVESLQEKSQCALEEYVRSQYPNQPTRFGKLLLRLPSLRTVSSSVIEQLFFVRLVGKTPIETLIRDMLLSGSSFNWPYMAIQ

[7] = CEM21 lymphoblast cell cytotoxicity, dose response, cytotoxicity control for viral fusion inhibitor project, CellTiter-Glo luminescence, cherry-picked (AID 652042); format: functional, cell-based;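 further: potency for signal decrease meaning cytotoxicity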
[8] = inhibitors of clade B AD8 Env fusion, dose response, cell-based, cherry-pick (AID 652062); format: functional;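 further: luciferase signal from cell-cell fusion driven by HIV-1 clade B AD8 Env; potency is for inhibitors of fusion seen as a drop in luminescence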
[9] = HEK293 cell viability, dose response, counter-screen for EBV LMP1 inhibitor project, dry powder, set 2 (AID 624374); format: functional
Paired box protein Pax-8 = Paired box protein Pax-8 (Homo sapiens, UniProt Q06710); assay: inhibitors of PAX8-driven TPO luciferase reporter, dose response, RMG-I cells, cherry-pick (AID 687027); format: functional, cell-based;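 further: luciferase reporter driven by Pax8 target thyroperoxidase promoter measured by SteadyGlo luminescence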
Sequence of Paired box protein Pax-8 (Q06710 whole entry): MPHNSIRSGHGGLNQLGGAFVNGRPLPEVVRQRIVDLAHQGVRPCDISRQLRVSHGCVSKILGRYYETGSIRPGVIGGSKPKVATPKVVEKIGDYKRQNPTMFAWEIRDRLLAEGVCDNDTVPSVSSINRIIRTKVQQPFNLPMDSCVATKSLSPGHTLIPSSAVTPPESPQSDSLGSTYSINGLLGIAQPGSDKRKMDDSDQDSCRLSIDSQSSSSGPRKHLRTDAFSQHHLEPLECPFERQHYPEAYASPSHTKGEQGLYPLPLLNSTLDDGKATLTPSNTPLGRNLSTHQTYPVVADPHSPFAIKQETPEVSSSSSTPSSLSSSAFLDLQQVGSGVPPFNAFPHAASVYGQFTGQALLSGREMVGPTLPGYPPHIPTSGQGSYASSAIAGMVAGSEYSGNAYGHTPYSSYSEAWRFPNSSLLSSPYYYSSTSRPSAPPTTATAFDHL

[10] = IOSE-T80 ovarian epithelial cell cytotoxicity, dose response, cytotoxicity control for PAX8 inhibitor project, plate reader, dry powder samples (AID 743045); format: functional, cell-based
[11] = cytotoxicity in OVCAR8 ovarian cancer cells, dose response, PAX8 project, cell-based, plate reader, dry powder samples (AID 743197); format: functional; settings: OVCAR-8
[12] = non-specific cell cytotoxicity, dose response, cytotoxicity control for PAX8 inhibitor project, plate reader, dry powder samples (AID 743021); format: functional, cell-based
[13] = NIH:OVCAR-3 ovarian cancer cell cytotoxicity, dose response, PAX8 inhibitor project, plate reader, dry powder samples (AID 743044); format: functional, cell-based

O=C(COC(=O)/C=C/C(=O)OCC(=O)Nc1ccccc1F)Nc1ccccc1F
AC50 [1]: 44.3 µM (active) | EC50 [2]: 11.1 µM (active) | AC50 [3]: 7.02 µM (active)

O=C(Nc1ccc(SC(F)(F)F)cc1)c1ccccn1
IC50 (cells): > 67.5 µM (inactive) | IC50 [4]: > 0.834 µM (active)

CCOc1ccc(CN2CCN(C(=O)c3ccco3)CC2)cc1
EC50 (Mu-type opioid receptor): 92.5 µM (inactive) | EC50 [5]: 0.965 µM (active)

CC12CCC(C(=O)N(CCCCN3CCN(c4ccccn4)CC3)C1=O)C2(C)C (stereo not given)
EC50 (Mu-type opioid receptor): 92.5 µM (inactive) | EC50 [5]: 0.0105 µM (active)

Cc1cccc(N2CCN(C(=O)c3[nH]c(C(F)(F)F)nc3-c3ccccc3)CC2)c1C
IC50 (cells): > 67.5 µM (inactive) | IC50 [4]: > 67.5 µM (inactive)

CCNc1nc(-c2sc(NC(=O)C(C)(C)C)nc2C)c(-n2cc(-c3ccccc3)nn2)s1
IC50 [6]: 10.7 µM (inactive)

N#C[C@@H]1[C@H](c2ccc(-c3cccc(F)c3)cc2)[C@H](CO)N1C(=O)c1cccnc1
AC50 [7]: 57.4 µM (active) | AC50 [8]: 3.62 µM (active)

N#C[C@H]1[C@@H](c2ccc(-c3cccnc3)cc2)[C@@H](CO)N1C(=O)Nc1ccc(F)cc1
AbsAC35 [9]: 162.11 µM

C[C@H](CO)N1C[C@H](C)[C@@H](CN(C)S(=O)(=O)c2ccc(Cl)cc2)OCCCC[C@H](C)Oc2ccc(NS(=O)(=O)c3cccs3)cc2C1=O
AC50 (Paired box protein Pax-8): 4.18 µM (active) | AC50 [10]: 12.7 µM (active) | AC50 [11]: 24.5 µM (active) | AC50 [12]: 21.4 µM (active) | AC50 [13]: 15 µM (active)
